The text below walks through data of US9409898B2, “Substituted pyrazole compounds as CRAC modulators” (LUPIN LIMITED, priority 2012, dated 2016).

The structures appear in SMILES notation.

For the test, the system named is IL-2 secretion. The test can be described thus: Inhibition of IL-2 secretion in PHA-stimulated Jurkat T cells (ELISA). As to conditions: Homo sapiens, PHA stimulation, 20 to 24 hours, IL-2 by ELISA. In kind it is cell-based. The method, then: The CRAC channel modulatory activity of the compounds were thus evaluated by measuring the secretion of IL-2 by antigen stimulated T-cells in vitro. Alternatively, such activity can also be evaluated by assay methods known to one skilled in the art.
Inhibition of IL-2 secretion: Jurkat T cells were seeded at a density of 0.5 to 1 million cells per well in RPMI medium. Test compounds from this invention were added to the cells at different concentrations. This was followed by the addition of PHA, a T cell mitogen after 10 minutes. The cells were then incubated for 20 to 24 hours in a CO2 incubator at 37° C. After incubation with the compounds, cells were centrifuged, the supernatant was collected and processed for ELISA to quantitate the amount of IL-2 secreted. A commercial ELISA kit (R&D Systems, Inc. Minneapolis, Minn., USA) was used to estimate the IL-2 concentrations. Amount of IL-2 secreted by cells stimulated with PHA was considered as a 100% maximal signal and the decrease in amount of IL-2 secreted by cells treated with the test compounds was expressed as percent inhibition of the maximal signal. The dose response data was analyzed using 4-parametric sigmoidal dose response (variable slope) curve—fit.

Consider `Cn1nc(-c2cc(C(F)(F)F)nn2-c2ccc(NC(=O)c3c(F)cccc3F)cn2)oc1=O` [Example 1, 2,6-Difluoro-N-(6-(5-(4-methyl-5-oxo-4,5-dihydro-1,3,4-oxadiazol-2-yl)-3-(trifluoromethyl)-1H-pyrazol-1-yl)pyridin-3-yl)benzamide], for which the IC50 is 100 to 1000 nM.
On to `Cc1cccc(F)c1C(=O)Nc1ccc(-n2nc(C(F)(F)F)cc2-c2nn(C)c(=O)o2)nc1` [Example 2, 2-Fluoro-6-methyl-N-(6-(5-(4-methyl-5-oxo-4,5-dihydro-1,3,4-oxadiazol-2-yl)-3-(trifluoromethyl)-1H-pyrazol-1-yl)pyridin-3-yl)benzamide], for which the IC50 is 100 to 1000 nM.
On to `Cn1nc(-c2cc(C3CC3)nn2-c2ccc(NCc3c(F)cccc3F)cn2)oc1=O` [Example 3, 5-(3-Cyclopropyl-1-(5-((2,6-difluorobenzyl)amino)pyridin-2-yl)-1H-pyrazol-5-yl)-3-methyl-1,3,4-oxadiazol-2(3H)-one], for which the IC50 is 100 to 1000 nM.
The figure for `Cn1nc(-c2cc(C(F)F)nn2-c2ccc(NC(=O)c3c(F)cccc3F)cn2)oc1=O` [Example 4, N-(6-(3-(Difluoromethyl)-5-(4-methyl-5-oxo-4,5-dihydro-1,3,4-oxadiazol-2-yl)-1H-pyrazol-1-yl)pyridin-3-yl)-2,6-difluorobenzamide] is greater than 1000 nM; for `Cn1nc(-c2cc(CF)n(-c3ccc(NCc4c(F)cccc4F)cn3)n2)oc1=O` [Example 5, 5-(1-(5-((2,6-Difluorobenzyl)amino)pyridin-2-yl)-5-(fluoromethyl)-1H-pyrazol-3-yl)-3-methyl-1,3,4-oxadiazol-2(3H)-one] it is 100 to 1000 nM.
The figure for `COC(=O)C1(C)CC(c2cc(C(F)(F)F)n(-c3ccc(NCc4c(F)cccc4F)cn3)n2)=NO1` (stereo not drawn) [Example 6, Methyl 3-(1-(5-((2,6-difluorobenzyl)amino)pyridin-2-yl)-5-(trifluoromethyl)-1H-pyrazol-3-yl)-5-methyl-4,5-dihydroisoxazole-5-carboxylate] is 100 to 1000 nM; for `COC(=O)C1(C)CC(c2cc(C(F)(F)F)n(-c3ccc(NCc4c(F)cccc4Cl)cn3)n2)=NO1` (stereo not drawn) [Example 7, Methyl 3-(1-(5-((2-chloro-6-fluorobenzyl)amino)pyridin-2-yl)-5-(trifluoromethyl)-1H-pyrazol-3-yl)-5-methyl-4,5-dihydroisoxazole-5-carboxylate] it is 100 to 1000 nM.
The figure for `Cn1nc(-c2cc(C(F)(F)F)n(-c3ccc(NC(=O)c4c(F)cccc4F)cn3)n2)oc1=O` [Example 8, 2,6-Difluoro-N-(6-(3-(4-methyl-5-oxo-4,5-dihydro-1,3,4-oxadiazol-2-yl)-5-(trifluoromethyl)-1H-pyrazol-1-yl)pyridin-3-yl)benzamide] is less than 100 nM; for `Cn1nc(-c2cc(C(F)(F)F)n(-c3ccc(NC(=O)c4c(F)cccc4Cl)cn3)n2)oc1=O` [Example 9, 2-Chloro-6-fluoro-N-(6-(3-(4-methyl-5-oxo-4,5-dihydro-1,3,4-oxadiazol-2-yl)-5-(trifluoromethyl)-1H-pyrazol-1-yl)pyridin-3-yl)benzamide] it is less than 100 nM.
`Cc1cccc(F)c1C(=O)Nc1ccc(-n2nc(-c3nn(C)c(=O)o3)cc2C(F)(F)F)nc1` [Example 10, 2-Fluoro-6-methyl-N-(6-(3-(4-methyl-5-oxo-4,5-dihydro-1,3,4-oxadiazol-2-yl)-5-(trifluoromethyl)-1H-pyrazol-1-yl)pyridin-3-yl)benzamide]: the 50% inhibitory concentration (IC50) is less than 100 nM.
Regarding `Cn1nc(-c2cc(C(F)F)n(-c3ccc(NC(=O)c4c(F)cccc4F)cn3)n2)oc1=O` [Example 11, N-(6-(5-(Difluoromethyl)-3-(4-methyl-5-oxo-4,5-dihydro-1,3,4-oxadiazol-2-yl)-1H-pyrazol-1-yl)pyridin-3-yl)-2,6-difluorobenzamide], the half-inhibitory concentration (IC50) is less than 100 nM.
The figure for `Cn1nc(-c2cc(C(F)F)n(-c3ccc(NCc4c(F)cccc4F)cn3)n2)oc1=O` [Example 12, 5-(1-(5-((2,6-Difluorobenzyl)amino)pyridin-2-yl)-5-(difluoromethyl)-1H-pyrazol-3-yl)-3-methyl-1,3,4-oxadiazol-2(3H)-one] is less than 100 nM; for `Cn1nc(-c2cc(C(F)F)nn2-c2ccc(NCc3c(F)cccc3F)cn2)oc1=O` [Example 13, 5-(1-(5-((2,6-Difluorobenzyl)amino)pyridin-2-yl)-3-(difluoromethyl)-1H-pyrazol-5-yl)-3-methyl-1,3,4-oxadiazol-2(3H)-one] it is greater than 1000 nM; for `CC1(C)ON=C(c2cc(C(F)(F)F)n(-c3ccc(NC(=O)c4c(F)cccc4F)cn3)n2)C1=O` [Example 14, N-(6-(3-(5,5-Dimethyl-4-oxo-4,5-dihydroisoxazol-3-yl)-5-(trifluoromethyl)-1H-pyrazol-1-yl)pyridin-3-yl)-2,6-difluorobenzamide] it is less than 100 nM.
Regarding `CC1(C)ON=C(c2cc(C(F)(F)F)n(-c3ccc(NC(=O)c4c(F)cccc4Cl)cn3)n2)C1=O` [Example 15, 2-Chloro-N-(6-(3-(5,5-dimethyl-4-oxo-4,5-dihydroisoxazol-3-yl)-5-(trifluoromethyl)-1H-pyrazol-1-yl)pyridin-3-yl)-6-fluorobenzamide], the IC50 was less than 100 nM.
In turn, `CN1N=C(c2cc(C(F)(F)F)n(-c3ccc(NC(=O)c4c(F)cccc4F)cn3)n2)C(C)(C)C1=O` [Example 16, 2,6-Difluoro-N-(6-(1′,4′,4′-trimethyl-5′-oxo-5-(trifluoromethyl)-4′,5′-dihydro-1H,1′H-[3,3′-bipyrazol]-1-yl)pyridin-3-yl)benzamide] came in with an IC50 of 100 to 1000 nM.
In the case of `CN1N=C(c2cc(C(F)(F)F)n(-c3ccc(NC(=O)c4c(F)cccc4Cl)cn3)n2)C(C)(C)C1=O` [Example 17, 2-Chloro-6-fluoro-N-(6-(1′,4′,4′-trimethyl-5′-oxo-5-(trifluoromethyl)-4′,5′-dihydro-1H,1′H-[3,3′-bipyrazol]-1-yl)pyridin-3-yl)benzamide], the IC50 lay within 100 to 1000 nM.
The figure for `Cc1cccc(F)c1C(=O)Nc1ccc(-n2nc(C3=NN(C)C(=O)C3(C)C)cc2C(F)(F)F)nc1` [Example 18, 2-Fluoro-6-methyl-N-(6-(1′,4′,4′-trimethyl-5′-oxo-5-(trifluoromethyl)-4′,5′-dihydro-1H,1′H-[3,3′-bipyrazol]-1-yl)pyridin-3-yl)benzamide] is less than 100 nM; for `Cn1c(-c2cc(C(F)(F)F)n(-c3ccc(NC(=O)c4c(F)cccc4F)cn3)n2)noc1=O` [Example 19, 2,6-Difluoro-N-(6-(3-(4-methyl-5-oxo-4,5-dihydro-1,2,4-oxadiazol-3-yl)-5-(trifluoromethyl)-1H-pyrazol-1-yl)pyridin-3-yl)benzamide] it is 100 to 1000 nM.
The figure for `CC(=O)N1N=C(c2cc(C(F)(F)F)n(-c3ccc(NC(=O)c4c(F)cccc4F)cn3)n2)OC1(C)C` [Example 20, N-(6-(3-(4-Acetyl-5,5-dimethyl-4,5-dihydro-1,3,4-oxadiazol-2-yl)-5-(trifluoromethyl)-1H-pyrazol-1-yl)pyridin-3-yl)-2,6-difluorobenzamide] is 100 to 1000 nM; for `CC1(C)COC(c2cc(C(F)(F)F)n(-c3ccc(NC(=O)c4c(F)cccc4F)cn3)n2)=N1` [Example 21, N-(6-(3-(4,4-Dimethyl-4,5-dihydrooxazol-2-yl)-5-(trifluoromethyl)-1H-pyrazol-1-yl)pyridin-3-yl)-2,6-difluorobenzamide] it is 100 to 1000 nM.
The figure for `Cn1nc(-c2cc(C(F)(F)F)n(-c3ccc(NCc4c(F)cccc4F)cn3)n2)oc1=O` [Example 22, 5-(1-(5-((2,6-Difluorobenzyl)amino)pyridin-2-yl)-5-(trifluoromethyl)-1H-pyrazol-3-yl)-3-methyl-1,3,4-oxadiazol-2(3H)-one] is less than 100 nM.
For the compound `Cn1nc(-c2cc(C(F)(F)F)n(-c3ccc(NCc4c(F)cccc4Cl)cn3)n2)oc1=O` [Example 23, 5-(1-(5-((2-Chloro-6-fluorobenzyl)amino)pyridin-2-yl)-5-(trifluoromethyl)-1H-pyrazol-3-yl)-3-methyl-1,3,4-oxadiazol-2(3H)-one], the IC50 was less than 100 nM.
The figure for `CN1N=C(c2cc(C(F)(F)F)n(-c3ccc(NCc4c(F)cccc4F)cn3)n2)C(C)(C)C1=O` [Example 24, 1′-(5-((2,6-Difluorobenzyl)amino)pyridin-2-yl)-1,4,4-trimethyl-5′-(trifluoromethyl)-1H,1′H-[3,3′-bipyrazol]-5(4H)-one] is 100 to 1000 nM; for `CN1N=C(c2cc(C(F)(F)F)n(-c3ccc(NCc4c(F)cccc4Cl)cn3)n2)C(C)(C)C1=O` [Example 25, 1′-(5-((2-Chloro-6-fluorobenzyl)amino)pyridin-2-yl)-1,4,4-trimethyl-5′-(trifluoromethyl)-1H,1′H-[3,3′-bipyrazol]-5(4H)-one] it is 100 to 1000 nM.
With `Cn1c(-c2cc(C(F)(F)F)n(-c3ccc(NCc4c(F)cccc4F)cn3)n2)noc1=O` [Example 26, 3-(1-(5-((2,6-Difluorobenzyl)amino)pyridin-2-yl)-5-(trifluoromethyl)-1H-pyrazol-3-yl)-4-methyl-1,2,4-oxadiazol-5(4H)-one], the half-inhibitory concentration (IC50) lay in the range of 100 to 1000 nM.
As to `CC(=O)N1N=C(c2cc(C(F)(F)F)n(-c3ccc(NCc4c(F)cccc4F)cn3)n2)OC1(C)C` [Example 27, 1-(5-(1-(5-((2,6-Difluorobenzyl)amino)pyridin-2-yl)-5-(trifluoromethyl)-1H-pyrazol-3-yl)-2,2-dimethyl-1,3,4-oxadiazol-3(2H)-yl)ethanone], the concentration for half-maximal inhibition (IC50) was in the range of 100 to 1000 nM.

In general, IC50 refers to the concentration that gives 50% inhibition. The low end stands for higher potency, the high end for lower potency.
